The results in this text go back to ChEMBL document CHEMBL1151005 (Bioorg Med Chem Lett, 1995).

The target of the test is Human immunodeficiency virus type 1 reverse transcriptase (Human immunodeficiency virus 1, UniProt Q72547). In words: Inhibitory activity against HIV-1 Reverse transcriptase (RT) was determined.
In turn, `CCN1c2cnccc2N(C)C(=O)c2cccnc21` had an IC50 of 350 nM. Turning to `CCN1c2ccncc2N(C)C(=O)c2cccnc21`, the 50% inhibitory concentration (IC50) was 1600 nM. Then `CCN1c2cnccc2C(=O)N(C)c2cccnc21`, with 6400 nM.
